ChEMBL document CHEMBL1201862, “PubChem BioAssay data set” (2004)
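Step 1: Grow cells in 96-well plates. Step 2: Expose to compound for 48 hours at 5 concentrations. Step 3: Interpolate endpoints linearly; if unreached, use highest concentration. GI50 is the concentration that inhibits growth by half.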 Activity calls are given as the source filed them. Cut-off read from the data, not from the text of the source: active = GI50 up to about 1.1 µM and inactive = higher.

Columns and labels:
Assay in all cases: NCI anticancer screen, dose series, 48 h
UACC-257 = test system: UACC-257
IGROV-1 = test system: IGROV-1
MDA-MB-231 = test system: MDA-MB-231
HOP-62 = test system: HOP-62
BT-549 = test system: BT-549
T47D = test system: T47D
HT-29 = test system: HT-29
OVCAR-4 = test system: OVCAR-4
RPMI-8226 = test system: RPMI-8226
M14 = test system: M14
SNB-19 = test system: SNB-19
SN12C = test system: SN12C
RXF 393 = test system: RXF 393
SF-268 = test system: SF-268
KM12 = test system: KM12
SW-620 = test system: SW-620
U-251 = test system: U-251
SF-295 = test system: SF-295
NCI-H460 = test system: NCI-H460
SK-MEL-2 = test system: SK-MEL-2

Structure (SMILES) | GI50 (UACC-257) | GI50 (IGROV-1) | GI50 (MDA-MB-231) | GI50 (HOP-62) | GI50 (BT-549) | GI50 (T47D) | GI50 (HT-29) | GI50 (OVCAR-4) | GI50 (RPMI-8226) | GI50 (M14) | GI50 (SNB-19) | GI50 (SN12C) | GI50 (RXF 393) | GI50 (SF-268) | GI50 (KM12) | GI50 (SW-620) | GI50 (U-251) | GI50 (SF-295) | GI50 (NCI-H460) | GI50 (SK-MEL-2)
CCCc1cc(COC)c(C#N)c(O)n1 | > 100 µM (inactive) | > 100 µM (inactive) | > 100 µM (inactive) | > 100 µM (inactive) | > 100 µM (inactive) | > 100 µM (inactive) | > 100 µM (inactive) | > 100 µM (inactive) | > 100 µM (inactive) | > 100 µM (inactive) | > 100 µM (inactive) | > 100 µM (inactive) | > 100 µM (inactive) | > 100 µM (inactive) | > 100 µM (inactive) | > 100 µM (inactive) | > 100 µM (inactive) | > 100 µM (inactive) | > 100 µM (inactive) | 
CCCCC/C(C=O)=C\c1ccccc1 | > 100 µM (inactive) | > 100 µM (inactive) | > 100 µM (inactive) | > 100 µM (inactive) | > 100 µM (inactive) | > 100 µM (inactive) | > 100 µM (inactive) | > 100 µM (inactive) | > 100 µM (inactive) | > 100 µM (inactive) | > 100 µM (inactive) |  | > 100 µM (inactive) | > 100 µM (inactive) | > 100 µM (inactive) | > 100 µM (inactive) | > 100 µM (inactive) | > 100 µM (inactive) | > 100 µM (inactive) | > 100 µM (inactive)
O=c1[nH]c2cc(C(F)(F)F)ccc2nc1Cc1ccccc1 | > 100 µM (inactive) | 46.7 µM (inactive) | 30.8 µM (inactive) | 28.9 µM (inactive) | > 100 µM (inactive) | 38.5 µM (inactive) | > 100 µM (inactive) | 63.7 µM (inactive) | > 100 µM (inactive) | > 100 µM (inactive) | 66.2 µM (inactive) |  | 37.7 µM (inactive) | 44.2 µM (inactive) | > 100 µM (inactive) | > 100 µM (inactive) | 76 µM (inactive) | 40.6 µM (inactive) | > 100 µM (inactive) | > 100 µM (inactive)
Cc1coc2c1C(OC(=O)C(C)C)C1(C)C(C)CCC(O)C1C2=O (stereo not drawn) | > 100 µM (inactive) | > 100 µM (inactive) | > 100 µM (inactive) | > 100 µM (inactive) | > 50.8 µM (inactive) | > 100 µM (inactive) | > 100 µM (inactive) | > 100 µM (inactive) | 89.5 µM (inactive) | > 100 µM (inactive) |  | > 100 µM (inactive) | > 100 µM (inactive) | > 100 µM (inactive) | > 100 µM (inactive) | > 100 µM (inactive) | > 100 µM (inactive) | > 100 µM (inactive) | > 100 µM (inactive) | > 100 µM (inactive)
COC(=O)c1ccccc1C1CN=NC12Cc1cccc(C)c1C2=O (stereo not drawn) | 37.3 µM (inactive) | 59.8 µM (inactive) | > 100 µM (inactive) | 45.2 µM (inactive) | 42.4 µM (inactive) | 16.6 µM (inactive) | 57.7 µM (inactive) | 33 µM (inactive) | 29 µM (inactive) |  | 70 µM (inactive) | 36.1 µM (inactive) | 11.5 µM (inactive) | 61.4 µM (inactive) | 26.8 µM (inactive) | > 100 µM (inactive) | 56 µM (inactive) | 34.4 µM (inactive) | 88.1 µM (inactive) | 46.1 µM (inactive)
C=CCc1cccc2cc(C(=O)NCc3ccccc3)c(=N)oc12 | 89.3 µM (inactive) | 24.9 µM (inactive) | 30.6 µM (inactive) | 38.5 µM (inactive) | 40.3 µM (inactive) | 24.5 µM (inactive) | 34.4 µM (inactive) | 41.4 µM (inactive) | 79.8 µM (inactive) | 40.6 µM (inactive) | 29.9 µM (inactive) | 27.6 µM (inactive) | 46.3 µM (inactive) | 36.1 µM (inactive) | 34.4 µM (inactive) | 49.4 µM (inactive) | 38.2 µM (inactive) |  | 28.5 µM (inactive) | 12.1 µM (inactive)
CN1CN(c2ccccc2)C2(CCN(CCc3csc4ccccc34)CC2)C1=O | 14.4 µM (inactive) | 21.7 µM (inactive) | > 10 µM (inactive) | 12.2 µM (inactive) | 4.71 µM (inactive) | 18.3 µM (inactive) | 4.04 µM (inactive) |  | 6.84 µM (inactive) | 16.7 µM (inactive) | 20.2 µM (inactive) | 15.6 µM (inactive) | 12.6 µM (inactive) | 28.8 µM (inactive) | 12.6 µM (inactive) | 16.9 µM (inactive) | 14.5 µM (inactive) |  |  | 
CCOP(=O)(OCC)/C(=C/n1c(=S)[nH]c2ccccc21)C(=O)OC | > 100 µM (inactive) | > 100 µM (inactive) | > 100 µM (inactive) | > 100 µM (inactive) | > 100 µM (inactive) | > 100 µM (inactive) | > 100 µM (inactive) | 45.1 µM (inactive) | > 100 µM (inactive) | > 100 µM (inactive) |  | > 100 µM (inactive) | > 100 µM (inactive) | > 100 µM (inactive) | > 100 µM (inactive) | > 100 µM (inactive) | > 100 µM (inactive) | > 100 µM (inactive) | 10 µM (inactive) | > 100 µM (inactive)
Oc1ccc(-c2ccccc2)nn1 | > 100 µM (inactive) | > 100 µM (inactive) | > 100 µM (inactive) | > 100 µM (inactive) | > 100 µM (inactive) | > 100 µM (inactive) | > 100 µM (inactive) | > 100 µM (inactive) |  | > 100 µM (inactive) | > 100 µM (inactive) | > 100 µM (inactive) | > 100 µM (inactive) | > 100 µM (inactive) | > 100 µM (inactive) | > 100 µM (inactive) | > 100 µM (inactive) | > 100 µM (inactive) | > 100 µM (inactive) | > 100 µM (inactive)
CCOC(=O)C1=C(C(=O)c2ccc(C)cc2)C(c2cccc([N+](=O)[O-])c2)C(C(=O)c2ccc(C)cc2)=C(C(=O)OCC)N1 | 21.4 µM (inactive) | 16.2 µM (inactive) | 13.9 µM (inactive) | 19.5 µM (inactive) | 21.1 µM (inactive) | 2.41 µM (inactive) | 13 µM (inactive) | 25.4 µM (inactive) |  | 18.1 µM (inactive) | 6.08 µM (inactive) | 17.6 µM (inactive) | 21 µM (inactive) | 17.7 µM (inactive) | 12.8 µM (inactive) | 14.1 µM (inactive) | 13.1 µM (inactive) | 16.1 µM (inactive) | 31.6 µM (inactive) | 26.1 µM (inactive)
COC(=O)C(=O)CC(=O)c1cccc(OC)c1 | > 100 µM (inactive) | < 0.01 µM (active) | > 100 µM (inactive) | > 100 µM (inactive) | > 100 µM (inactive) | > 100 µM (inactive) | > 100 µM (inactive) | > 100 µM (inactive) | > 100 µM (inactive) | > 100 µM (inactive) | > 100 µM (inactive) | > 100 µM (inactive) | > 100 µM (inactive) | > 100 µM (inactive) | > 100 µM (inactive) | > 100 µM (inactive) | > 100 µM (inactive) | > 100 µM (inactive) | > 100 µM (inactive) | 
CN(C)CC[N+](C)(C)[BH2-]C(O)O | > 100 µM (inactive) | > 100 µM (inactive) | > 100 µM (inactive) | > 100 µM (inactive) | > 100 µM (inactive) | > 100 µM (inactive) | > 100 µM (inactive) | > 100 µM (inactive) |  | > 100 µM (inactive) | > 100 µM (inactive) | > 100 µM (inactive) | > 100 µM (inactive) | > 100 µM (inactive) | > 100 µM (inactive) | > 100 µM (inactive) | > 100 µM (inactive) | > 100 µM (inactive) | > 100 µM (inactive) | > 100 µM (inactive)
C[C@@H]1C[C@@H]2OC(=O)[C@]3(C)[C@H]2[C@@H](OC3(C)O)[C@]2(C)C(=O)C=C[C@@H]12 (stereo partly drawn) [TENULIN] | 18 µM (inactive) | > 10 µM (inactive) | 25 µM (inactive) | 87.7 µM (inactive) | 10.1 µM (inactive) | 19 µM (inactive) | 15.2 µM (inactive) | 10.8 µM (inactive) | 4.3 µM (inactive) | 20.6 µM (inactive) | 41.4 µM (inactive) | 18.3 µM (inactive) | 18.7 µM (inactive) | 31.3 µM (inactive) | 23.6 µM (inactive) | 16.9 µM (inactive) | 40.3 µM (inactive) | > 100 µM (inactive) |  | 19.8 µM (inactive)
Cc1ncc(CSc2ccccc2N)c(CO)c1O | > 100 µM (inactive) | > 100 µM (inactive) | > 100 µM (inactive) | > 100 µM (inactive) | > 100 µM (inactive) | > 100 µM (inactive) | > 100 µM (inactive) | > 100 µM (inactive) | > 100 µM (inactive) | > 100 µM (inactive) | > 100 µM (inactive) | > 100 µM (inactive) | > 100 µM (inactive) | > 100 µM (inactive) | > 100 µM (inactive) | > 100 µM (inactive) | > 100 µM (inactive) | > 100 µM (inactive) |  | > 100 µM (inactive)
